Data from patent US10703971B2, “Chemiluminescent substrates” (Beckman Coulter, Inc., priority 2016, dated 2020).

How the values were obtained:
alkaline phosphatase [1] = assay: Alternative cationic aromatic compounds, Imax on Turner 20/20e luminometer; conditions: compound used as cationic aromatic compound (CAC) in the formulation
alkaline phosphatase [2] = assay: Stability Test A: luminescence of the AP substrate formulation in a micro-titer plate after injection of AP; type: biochemical; conditions: 50% more of the named component added to a single lot of APS-5
Method: An aliquot (100 μL) of AP substrate formulation was added to a micro-titer plate well (8 replicates for each formulation). The plate was placed in a luminescence plate reader (Luminoskan, Labtech) and to each well was injected 20 μL of AP solution (2 ng/mL). Luminescence signal was read after 30 seconds and intergraded for 2 seconds.

[3] = test system: Beckman Coulter System Check ALP; assay: Stability of chemiluminescent compounds I in two buffer systems, signal RLU of samples stored at two temperatures; type: biochemical
Method: 3.25 mg/L Lucigenin, 10 mg/L Sodium Sulfite. The second was based on the present invention and included AMPD 0.1 M pH 9.70 containing 0.5 g/L STS, 1 g/L PEG (Mw=35,000), 3.25 mg/L Lucigenin, 10 mg/L Sodium Sulfite. Various chemiluminescent compounds I shown below were added to 200 mL aliquots of each buffer at 0.15 g/L.
Each formulation was split into ˜100 mL halves with one kept at ˜5° C. and the other kept at −30° C.
Material was tested periodically over two weeks measuring the relative change in signal RLU between the two storage conditions. Formulations were tested in 96-well plates by comparing samples at stored at two temperatures to reduce the variability associated with enzymes/temperature/day to day. The samples were incubated at 37° C. for 30 minutes on the instrument 20 uL of enzyme (prepared by mixing 1 mL of Beckman Coulter System Check ALP with 640 mL of the Sample Diluent Buffer) were injected into 200 uL of formulation. Kinetic signal was measured at ˜29 seconds after injection of ALP solution. 15-16 data points (wells) were measured for each Buffer/Temperature/Time point (Well A1 is excluded due to variation in injection volume).

SMILES | I max RLU (Turner 20/20e luminometer with filter) (alkaline phosphatase [1]) [RLU] | also measured
C[n+]1c2ccccc2c(-c2c3ccccc3[n+](C)c3ccc(Cl)cc23)c2cc(Cl)ccc21 | 454 | 
CCCCCCCCCCCCOS(=O)(=O)[O-].[Na+] [SDS, sodium dodecyl sulfate] |  | Performance (alkaline phosphatase [2]): 70.5%
C[n+]1c2ccccc2c(-c2c3ccccc3cc3ccccc23)c2cc(Cl)ccc21 | 1037 | 
O=S([O-])[O-].[Na+].[Na+] [Sodium Sulfite, sodium sulfite] |  | Performance (alkaline phosphatase [2]): 100.1%
C[n+]1ccc2c(c1-c1c3c(cc[n+]1C)=CCCC=3)=CCCC=2 | 41 | 
C1=c2cc[n+]3c(c2=CCC1)-c1c2c(cc[n+]1CC3)=CCCC=2 | 500 | 
C[n+]1c2ccccc2c(-c2c3ccccc3[n+](C)c3ccc(Cl)cc23)c2ccccc21 | 1600 | 
CN1c2ccccc2C(=C(OP(=O)(O)O)Sc2ccccc2)c2ccccc21 [Compound 3] |  | Signal Loss at 30° C. (slope, % loss/Day) ([3]; 0.15 g/L compound in AMPD buffer system (AMPD 0.1 M pH 9.70, STS, PEG 35,000, lucigenin, sodium sulfite)): 0.53% loss/Day; Signal Loss at 30° C. (slope, % loss/Day) ([3]; 0.15 g/L compound in TRIS-Tween buffer system (Tris 0.3 M pH 9.35, SDS, Tween-20, lucigenin, sodium sulfite)): 0.61% loss/Day
